# Source: ChEMBL document CHEMBL5620390, “A novel multifunctional mitochondrion-targeting NIR fluorophore probe inhibits tumour proliferation and metastasis through the PPARγ/ROS/β-catenin pathway” (Eur J Med Chem, 2023)
# Activity calls are given as the source filed them. No cut-off for these calls is given here.
# Tests used:
# [1] = system: B16-F10; assay: Antitumor activity against mouse B16-F10 cells inoculated in C57BL/6J mouse assessed as reduction in tumor volume at 0.5 to 2 mg/kg, ip administered every other day and measured on day 22; format: functional, organism-based; conditions: dose 0.5-2 mg/kg, time 22.0 day
# [2] = system: A-375; assay: Induction of cell cycle arrest in human A-375 cells assessed as reduction in Cdk2 protein level at 0.31 to 1.25 uM after 24 hrs by Western blotting analysis; format: functional, cell-based; conditions: dose 0.31-1.25 µM
# [3] = system: B16-F10; assay: Inhibition of ROS generation in mouse B16-F10 cells at 1.25 uM preincubated with rosiglitazone for 2 hrs followed by wash out and compound addition for 1 hr by DCFH-DA staining based inverted fluorescence microscopic analysis; format: functional; set-up: scale not given: the % may be the effect or the level left
# [4] = system: B16-F10; assay: Induction of ROS generation in mouse B16-F10 cells assessed as reduction in GPX1 expression level at 1.25 uM preincubated with rosiglitazone for 24 hrs followed by compound addition for 24 hrs; format: functional, cell-based
# [5] = system: A-375; assay: Antiproliferative activity against human A-375 cells assessed as inhibition of cell growth after 24 to 72 hrs by MTT assay; format: functional, cell-based
# [6] = Drug uptake in human A-375 cells mitochondria at 2.5 uM incubated for 45 mins by mito-tracker green dye based confocal laser scanning fluorescence microscopy analysis; format: ADME; conditions: a-375, 0.75 h
# [7] = Drug uptake in mouse B16-F10 cells implanted in C57BL/6J mouse assessed as fluorescence aggregation in tumor at 3 mg/kg, iv measured after 3 to 6 hrs; format: ADME, organism-based; conditions: in vivo, time 3-6 hrs
# [8] = Toxicity in mouse inoculated with mouse B16-F10 cells assessed as change in body weight at 2 mg/kg, ip administered every other day and measured on day 18; format: organism-based; conditions: in vivo, 432 h, time 18 day
# [9] = system: A-375; assay: Induction of cell cycle arrest in human A-375 cells assessed as P21 protein accumulation at 0.31 to 1.25 uM after 24 hrs by Western blotting analysis; format: functional, cell-based; conditions: dose 0.31-1.25 µM
# [10] = system: B16-F10; assay: Antitumor activity against mouse B16-F10 cells inoculated in mouse assessed as reduction in tumor metastasis at 2 mg/kg, ip administered every other day and measured on day 18 by H and E staining based assay; format: functional, organism-based; conditions: time 18.0 day
# [11] = system: A549; assay: Antiproliferative activity against human A549 cells assessed as inhibition of cell growth at 0.31 uM after 72 hrs by MTT assay; format: functional; set-up: scale not given: the % may be the effect or the level left
# [12] = system: B16-F10; assay: Antitumor activity against mouse B16-F10 cells inoculated in mouse assessed as reduction in lung melanoma nodules at 2 mg/kg, ip administered every other day and measured on day 18 by immunohistochemistry analysis; format: functional, organism-based; conditions: time 18.0 day
# [13] = system: B16-F10; assay: Antitumor activity against mouse B16-F10 cells inoculated in C57BL/6J mouse assessed as reduction in tumor growth at 0.5 to 2 mg/kg, ip administered every other day and measured on day 22; format: functional, organism-based; conditions: dose 0.5-2 mg/kg, time 22.0 day
# [14] = system: B16-F10; assay: Inhibition of tumor metastasis in mouse B16-F10 cells assessed as reduction in wound healing after 24 hrs; format: functional, cell-based; conditions: dose 0.08-1.25 µM
# [15] = system: A-375; assay: Inhibition of tumor metastasis in human A-375 cells assessed as reduction in wound healing after 24 hrs; format: functional, cell-based; conditions: dose 0.08-1.25 µM
# [16] = system: B16-F10; assay: Induction of cell cycle arrest in mouse B16-F10 cells assessed as accumulation of cells at G0/G1 phase incubated for 24 hrs by PI staining based flow cytometry analysis (reference value: 10.93%); format: functional
# [17] = system: B16-F10; assay: Induction of ROS generation in mouse B16-F10 cells assessed as reduction in SOD2 expression level at 1.25 uM preincubated with rosiglitazone for 24 hrs followed by compound addition for 24 hrs; format: functional, cell-based
# [18] = Drug uptake in mouse B16-F10 cells assessed as fluorescence intensity at 2.5 uM incubated for 1 hr by confocal laser scanning microscopic analysis; format: ADME, cell-based; conditions: b16-f10, 1 h
# [19] = system: B16-F10; assay: Antiproliferative activity against mouse B16-F10 cells assessed as inhibition of cell growth at 0.04 to 10 uM by MTT assay; format: functional, cell-based; conditions: dose 0.04-10 µM, time 24-72 hrs, TDE = time-dependent effect
# [20] = Cytotoxicity against mouse B16-F10 cells assessed as cell viability at 40 uM incubated for 24 hrs by MTT assay; format: toxicity, cell-based; conditions: read-out: Activity
# [21] = system: B16-F10; assay: Induction of cell cycle arrest in mouse B16-F10 cells assessed as reduction in cyclin E1 protein level at 0.31 to 1.25 uM after 24 hrs by Western blotting analysis; format: functional, cell-based; conditions: dose 0.31-1.25 µM
# [22] = system: B16-F10; assay: Antiproliferative activity against mouse B16-F10 cells assessed as inhibition of cell growth at 0.31 uM after 72 hrs by MTT assay; format: functional; set-up: scale not given: the % may be the effect or the level left
# [23] = system: A-375; assay: Antiproliferative activity against human A-375 cells assessed as inhibition of cell growth at 0.04 to 10 uM by MTT assay; format: functional, cell-based; conditions: dose 0.04-10 µM, time 24-72 hrs, TDE = time-dependent effect
# [24] = system: B16-F10; assay: Inhibition of Wnt/beta-catenin signaling in mouse B16-F10 cells assessed as reduction in beta-catenin expression at 1.25 uM incubated for 24 hrs; format: cell-based
# [25] = system: B16-F10; assay: Antitumor activity against mouse B16-F10 cells inoculated in mouse assessed as reduction in spleen metastasis at 2 mg/kg, ip administered every other day and measured on day 18 by H and E staining based assay; format: functional, organism-based; conditions: time 18.0 day
# [26] = Renal toxicity in C57BL/6J mouse inoculated with mouse B16-F10 cells assessed as change in BUN level at 2 mg/kg, ip administered every other day for 22 days; format: organism-based; conditions: in vivo, 528 h, time 22 day
# [27] = system: B16-F10; assay: Induction of mitochondrial damage in mouse B16-F10 cells assessed as mitochondrial swelling at 2.5 uM incubated for 24 hrs by TEM analysis; format: functional, cell-based
# [28] = system: A-375; assay: Induction of cell cycle arrest in human A-375 cells assessed as reduction in cyclin E1 protein level at 0.31 to 1.25 uM after 24 hrs by Western blotting analysis; format: functional, cell-based; conditions: dose 0.31-1.25 µM
# [29] = system: B16-F10; assay: Inhibition of cell metastasis in mouse B16-F10 cells assessed as reduction in MMP2 protein level at 0.31 to 1.25 uM after 24 hrs by Western blotting analysis; format: functional, cell-based; conditions: dose 0.31-1.25 µM
# [30] = system: A-375; assay: Antitumor activity against human GFP-stained A-375 cells inoculated in zebrafish assessed as reduction in tumor growth by measuring tumor fluorescence intensity; format: functional, cell-based
# [31] = system: A-375; assay: Antiproliferative activity against human A-375 cells assessed as inhibition of cell growth at 0.31 uM after 72 hrs by MTT assay; format: functional; set-up: scale not given: the % may be the effect or the level left
# [32] = Drug uptake in human A549 cells assessed as fluorescence intensity at 2.5 uM incubated for 1 hr by confocal laser scanning microscopic analysis; format: ADME, cell-based; conditions: a549, 1 h
# [33] = system: B16-F10; assay: Antitumor activity against mouse B16-F10 cells inoculated in mouse assessed as reduction in MMP9 expression at 2 mg/kg, ip administered every other day and measured on day 18 by immunohistochemistry analysis; format: functional, organism-based; conditions: time 18.0 day
# [34] = Toxicity in C57BL/6J mouse inoculated with mouse B16-F10 cells assessed as effect on lung morphology at 2 mg/kg, ip administered every other day for 22 days by H and E staining based assay; format: organism-based; conditions: in vivo, 528 h, time 22 day
# [35] = system: B16-F10; assay: Induction of mitochondrial damage in mouse B16-F10 cells assessed as increase in ROS production measured upto 120 mins by DCFH-DA staining based flow cytometry analysis; format: functional, cell-based; conditions: dose 0.16-2.5 µM
# [36] = system: A-375; assay: Inhibition of ROS generation in human A-375 cells at 1.25 uM preincubated with rosiglitazone for 2 hrs followed by wash out and compound addition for 1 hr by DCFH-DA staining based inverted fluorescence microscopic analysis; format: functional; set-up: scale not given: the % may be the effect or the level left
smiles,measurement,setting,value
CC[N+]1=C(/C=C/C2=C(Cl)C(=C/C=C3\N(CCCCCC(=O)O/C(=N/C4CCCCC4)NC4CCCCC4)c4ccccc4C3(C)C)/CCC2)C(C)(C)c2ccccc21.[Br-],Activity,[1],Active
same,Activity,[2],Active
same,Activity,[3],>50%
same,Activity,[4],inactive
same,IC50,[5],180 nM
same,Activity,[5]; time 24-72 hrs,Dose-Dependent Effect
same,Drug uptake,[6],Active
same,Drug uptake,[7],Active
same,Activity,[8],Non-Toxic
same,Activity,[9],Active
same,Activity,[10],Active
same,Activity,[11],70%
same,Activity,[12],Active
same,Activity,[13],Active
same,inhibition,[14],Dose-Dependent Effect
same,inhibition,[15],Dose-Dependent Effect
same,Activity,[16],40.75%
same,Activity,[17],inactive
same,Drug uptake,[18],Active
same,Activity,[19],Tde
same,"viability at 24 h, 40 µM",[20],90%
same,Activity,[21],Active
same,Activity,[22],70%
same,Activity,[23],Tde
same,inhibition,[24],Active
same,Activity,[25],Active
same,Activity,[26],Non-Toxic
same,Activity,[27],Active
same,Activity,[28],Active
same,inhibition,[29],Active
same,Activity,[30],Active
same,Activity,[31],70%
same,Drug uptake,[32],Active
same,Activity,[33],Active
same,Activity,[34],Non-Toxic
same,Activity,[35],Dose-Dependent Effect
same,Activity,[36],>50%
